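Cells were grown in 96-well plates and exposed to each compound for 48 hours at five concentrations; endpoints were interpolated linearly between bracketing concentrations, or set to the highest concentration if not reached. GI50 is the concentration that inhibits growth by half. TGI: concentration producing complete growth inhibition.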
How the values were obtained:
Assay in all cases: NCI tumour cell line growth inhibition, 48 h
[1] = system: T-47D breast
[2] = system: LOX IMVI melanoma
[3] = system: NCI-H226 lung
[4] = system: SF-268 CNS
[5] = system: EKVX NSCLC
[6] = system: SW-620 colon
[7] = system: PC-3 prostate
[8] = system: KM12 colon
[9] = system: K-562 leukemia
[10] = system: 786-0 renal
[11] = system: SNB-75 CNS
[12] = system: SF-539 CNS
[13] = system: HCT-15 colon
[14] = system: CAKI-1 renal
[15] = system: SK-OV-3 ovarian
[16] = system: SK-MEL-2 melanoma
[17] = system: M14 melanoma
[18] = system: MDA-MB-231 breast
[19] = system: TK-10 renal
[20] = system: COLO 205 colon
[21] = system: MDA-MB-435
[22] = system: UACC-257 melanoma
[23] = system: MALME-3M melanoma
[24] = system: HCC-2998 colon
[25] = system: MCF7 breast
[26] = system: A549 NSCLC
[27] = system: U251 CNS
[28] = system: SK-MEL-28 melanoma
[29] = system: ACHN renal
[30] = system: RPMI-8226 leukemia
[31] = system: SNB-19 CNS
[32] = system: OVCAR-4 ovarian
[33] = system: CCRF-CEM leukemia
[34] = system: SF-295 CNS
[35] = system: OVCAR-3 ovarian
[36] = system: BT-549 breast
[37] = system: HOP-62 NSCLC
[38] = system: IGROV1 ovarian
[39] = system: UO-31 renal
[40] = system: OVCAR-5 ovarian
[41] = system: SR leukemia
[42] = system: HCT-116 colon
[43] = system: DU-145 prostate
[44] = system: UACC-62 melanoma
[45] = system: SK-MEL-5 melanoma
[46] = system: HT29 colon
[47] = system: A498 renal
[48] = system: HS 578T breast
[49] = system: MOLT-4 leukemia
[50] = system: NCI-H522 lung
[51] = system: HOP-92 NSCLC
[52] = system: SN12C renal
[53] = system: OVCAR-8 ovarian
[54] = system: HL-60(TB) leukemia
[55] = system: NCI-H460 lung
[56] = system: RXF 393 renal
[57] = system: NCI/ADR-RES ovarian
[58] = system: NCI-H23 lung

c1ccc(-n2nnnc2-c2cccc3ccccc23)cc1
GI50 [1]: 461 nM
TGI [1]: > 100000 nM
GI50 [2]: 498 nM
TGI [2]: 24800 nM
GI50 [3]: 15500 nM
TGI [3]: > 100000 nM
GI50 [4]: 833 nM
TGI [4]: > 73100 nM
GI50 [5]: 2420 nM
TGI [5]: > 100000 nM
GI50 [6]: 453 nM
TGI [6]: > 100000 nM
GI50 [7]: 1140 nM
TGI [7]: > 100000 nM
GI50 [8]: 396 nM
TGI [8]: 22800 nM
GI50 [9]: 377 nM
TGI [9]: > 100000 nM
GI50 [10]: 2010 nM
TGI [10]: 53200 nM
GI50 [11]: 1550 nM
TGI [11]: > 27700 nM
GI50 [12]: 445 nM
TGI [12]: 3430 nM
GI50 [13]: 348 nM
TGI [13]: > 100000 nM
GI50 [14]: 465 nM
TGI [14]: > 100000 nM
GI50 [15]: 908 nM
TGI [15]: 13500 nM
GI50 [16]: 3680 nM
TGI [16]: > 63100 nM
GI50 [17]: 365 nM
TGI [17]: 8810 nM
GI50 [18]: 1340 nM
TGI [18]: 28800 nM
GI50 [19]: 1450 nM
TGI [19]: > 100000 nM
GI50 [20]: 490 nM
TGI [20]: 3830 nM
GI50 [21]: 121 nM
TGI [21]: 489 nM
GI50 [22]: 27800 nM
TGI [22]: > 100000 nM
GI50 [23]: 635 nM
TGI [23]: > 100000 nM
GI50 [24]: 1120 nM
TGI [24]: 10300 nM
GI50 [25]: 562 nM
TGI [25]: > 100000 nM
GI50 [26]: 1040 nM
TGI [26]: > 100000 nM
GI50 [27]: 536 nM
TGI [27]: > 48100 nM
TGI [28]: > 100000 nM
GI50 [29]: 840 nM
TGI [29]: > 100000 nM
GI50 [30]: 579 nM
TGI [30]: 45700 nM
GI50 [31]: 859 nM
TGI [31]: > 100000 nM
GI50 [32]: 11400 nM
TGI [32]: > 100000 nM
GI50 [33]: 447 nM
TGI [33]: > 100000 nM
GI50 [34]: 395 nM
TGI [34]: 19900 nM
GI50 [35]: 257 nM
TGI [35]: 627 nM
GI50 [36]: 755 nM
TGI [36]: > 61200 nM
GI50 [37]: 765 nM
TGI [37]: > 100000 nM
GI50 [38]: 1560 nM
TGI [38]: > 100000 nM
GI50 [39]: 2160 nM
TGI [39]: 61100 nM
GI50 [40]: 3270 nM
TGI [40]: > 100000 nM
GI50 [41]: 438 nM
TGI [41]: 74400 nM
GI50 [42]: 401 nM
TGI [42]: 24500 nM
GI50 [43]: 920 nM
TGI [43]: 6860 nM
GI50 [44]: 666 nM
TGI [44]: > 100000 nM
GI50 [45]: 462 nM
TGI [45]: 20200 nM
GI50 [46]: 357 nM
TGI [46]: > 20300 nM
GI50 [47]: 704 nM
TGI [47]: > 55300 nM
GI50 [48]: 1360 nM
TGI [48]: > 100000 nM
GI50 [49]: 657 nM
TGI [49]: > 100000 nM
GI50 [50]: 272 nM
TGI [50]: 2710 nM
GI50 [51]: 1190 nM
TGI [51]: 24300 nM
GI50 [52]: 1330 nM
TGI [52]: > 100000 nM
GI50 [53]: 1480 nM
TGI [53]: > 100000 nM
GI50 [54]: 365 nM
TGI [54]: 1700 nM
GI50 [55]: 442 nM
TGI [55]: > 42400 nM
GI50 [56]: 1010 nM
TGI [56]: > 20100 nM
GI50 [57]: 279 nM
TGI [57]: 1610 nM
GI50 [58]: 1280 nM
TGI [58]: > 100000 nM

CC(=O)O/N=C1/C(c2c(O)[nH]c3cc(Br)ccc23)=Nc2ccccc21
GI50 [1]: 2590 nM
TGI [1]: 7820 nM
GI50 [2]: 1130 nM
TGI [2]: 2400 nM
GI50 [3]: 1450 nM
TGI [3]: 4740 nM
GI50 [4]: 1620 nM
TGI [4]: 3780 nM
GI50 [5]: 1370 nM
TGI [5]: 2950 nM
GI50 [6]: 1820 nM
TGI [6]: 3460 nM
GI50 [7]: 1330 nM
TGI [7]: 3510 nM
GI50 [8]: 398 nM
TGI [8]: 1910 nM
GI50 [9]: 553 nM
TGI [9]: 3300 nM
GI50 [10]: 1920 nM
TGI [10]: 8060 nM
GI50 [11]: 811 nM
TGI [11]: 5110 nM
GI50 [12]: 818 nM
TGI [12]: 3130 nM
GI50 [13]: 962 nM
TGI [13]: 2720 nM
GI50 [14]: 275 nM
TGI [14]: 2040 nM
GI50 [15]: 421 nM
TGI [15]: 1960 nM
GI50 [16]: 1280 nM
TGI [16]: 2890 nM
GI50 [17]: 2000 nM
TGI [17]: 4880 nM
GI50 [18]: 1530 nM
TGI [18]: 3770 nM
GI50 [19]: 2090 nM
TGI [19]: 5320 nM
GI50 [20]: 1570 nM
TGI [20]: 3000 nM
GI50 [21]: 1630 nM
TGI [21]: 3200 nM
GI50 [22]: 2260 nM
TGI [22]: 4380 nM
GI50 [23]: 3480 nM
TGI [23]: 8420 nM
GI50 [24]: 1680 nM
TGI [24]: 3080 nM
GI50 [25]: 1930 nM
TGI [25]: 5980 nM
GI50 [26]: 1480 nM
TGI [26]: 3470 nM
GI50 [27]: 1720 nM
TGI [27]: 5630 nM
GI50 [28]: 2220 nM
TGI [28]: 4900 nM
GI50 [29]: 707 nM
TGI [29]: 2180 nM
GI50 [30]: 2030 nM
TGI [30]: 5270 nM
GI50 [31]: 4260 nM
TGI [31]: 11100 nM
GI50 [32]: 1600 nM
TGI [32]: 3930 nM
GI50 [33]: 1380 nM
TGI [33]: 5370 nM
GI50 [34]: 2000 nM
TGI [34]: 5470 nM
GI50 [35]: 771 nM
TGI [35]: 2140 nM
GI50 [36]: 1280 nM
TGI [36]: 3500 nM
GI50 [37]: 2050 nM
TGI [37]: 4530 nM
GI50 [38]: 1270 nM
TGI [38]: 3330 nM
GI50 [39]: 653 nM
TGI [39]: 2400 nM
GI50 [40]: 2510 nM
TGI [40]: 4170 nM
GI50 [41]: 1630 nM
TGI [41]: 5900 nM
GI50 [42]: 1050 nM
TGI [42]: 2670 nM
GI50 [43]: 1440 nM
TGI [43]: 3200 nM
GI50 [44]: 1170 nM
TGI [44]: 2750 nM
GI50 [45]: 524 nM
TGI [45]: 1330 nM
GI50 [46]: 1840 nM
TGI [46]: 3650 nM
GI50 [47]: 429 nM
TGI [47]: 1200 nM
GI50 [48]: 69.8 nM
TGI [48]: 1790 nM
GI50 [49]: 1780 nM
TGI [49]: 5070 nM
GI50 [50]: 1560 nM
TGI [50]: 3680 nM
GI50 [51]: 1930 nM
TGI [51]: 5350 nM
GI50 [52]: 873 nM
TGI [52]: 2580 nM
GI50 [53]: 1590 nM
TGI [53]: 4530 nM
GI50 [54]: 1880 nM
TGI [54]: 4370 nM
GI50 [55]: 1240 nM
TGI [55]: 3330 nM
GI50 [56]: 385 nM
TGI [56]: 1610 nM
GI50 [57]: 1730 nM
TGI [57]: 4590 nM
GI50 [58]: 1630 nM
TGI [58]: 3620 nM
